Drawing on the NIST ThermoML archive (doi:10.1021/acs.jced.9b00147), this text covers speed of sound and mass density for eight molecules.

For series [1] the following is noted: 101.3 kPa, Liquid; for speed of sound: Single path-length method; for mass density: Vibrating tube method.
The nature of series [2]: xn = mol fraction of the nth substance listed. The settings on record: 101.3 kPa, Liquid, x2 = 0; for speed of sound: Single path-length method; for mass density: Vibrating tube method.

“And” between values parts separate entries of the source, which are not always exact repeats. Equal entries are not always repeated. ± gives the expanded uncertainty stated by the source.

Turning to `CC(=O)[O-].[NH3+]CCO` [2-hydroxyethylammonium acetate], the speed of sound in series [1] (293.15 K) is recorded as 1812.9 ± 20 m/s; in series [1] (303.15 K), 1781.2 ± 20 m/s; in series [1] (313.15 K), 1754.7 ± 20 m/s; in series [1] (323.15 K), 1730.9 ± 20 m/s. Besides, the mass density in series [1] (293.15 K) was 1150 ± 6 kg/m3; in series [1] (303.15 K) it was 1144 ± 6 kg/m3; in series [1] (313.15 K), 1139 ± 6 kg/m3; in series [1] (323.15 K), 1133 ± 6 kg/m3 and 1132 ± 6 kg/m3.
As to `CC(=O)[O-].OCC[NH2+]CCO` [2,2'-azanediylbis(ethanol) acetate], the speed of sound in series [1] (293.15 K) worked out at 1884.7 ± 20 m/s; in series [1] (303.15 K), 1828.2 ± 20 m/s; in series [1] (313.15 K), 1788.6 ± 20 m/s; in series [1] (323.15 K), 1756 ± 20 m/s. Moreover, the mass density in series [1] (293.15 K) came out at 1180 ± 6 kg/m3; in series [1] (303.15 K) it was 1173 ± 6 kg/m3; in series [1] (313.15 K) it was 1167 ± 6 kg/m3; in series [1] (323.15 K), 1160 ± 6 kg/m3.
With `CC(C)O` [propan-2-ol], the speed of sound in series [1] (293.15 K) worked out at 1174.3 ± 20 m/s; in series [1] (303.15 K), 1122.4 ± 20 m/s; in series [1] (313.15 K), 1087.4 ± 20 m/s; in series [1] (323.15 K), 1051.6 ± 20 m/s. Besides, the mass density is given as 791.5 ± 6 kg/m3 in series [1] (293.15 K), 777 ± 6 kg/m3 in series [1] (303.15 K), 768.2 ± 6 kg/m3 in series [1] (313.15 K) and 759 ± 6 kg/m3 in series [1] (323.15 K).
As for `CCCO` [propan-1-ol] + CC(=O)[O-].[NH3+]CCO, the speed of sound was 1223.4 ± 20 m/s in series [2] (293.15 K), 1189.4 ± 20 m/s in series [2] (303.15 K), 1155.5 ± 20 m/s in series [2] (313.15 K) and 1122 ± 20 m/s in series [2] (323.15 K). The mass density in series [2] (293.15 K) was determined as 803.6 ± 6 kg/m3; in series [2] (303.15 K), 795.7 ± 6 kg/m3; in series [2] (313.15 K), 787.5 ± 6 kg/m3; in series [2] (323.15 K), 779.2 ± 6 kg/m3.
For the molecule `CCCO` [propan-1-ol], the speed of sound in series [1] (293.15 K) is recorded as 1223.4 ± 20 m/s; in series [1] (303.15 K), 1189.4 ± 20 m/s; in series [1] (313.15 K), 1155.5 ± 20 m/s; in series [1] (323.15 K), 1122 ± 20 m/s. In addition, the mass density in series [1] (293.15 K) amounted to 803.6 ± 6 kg/m3; in series [1] (303.15 K), 795.7 ± 6 kg/m3; in series [1] (313.15 K) it was 787.5 ± 6 kg/m3; in series [1] (323.15 K), 779.2 ± 6 kg/m3.
With `CC(C)O` [propan-2-ol] + CC(=O)[O-].OCC[NH2+]CCO, the speed of sound is 1174.3 ± 20 m/s in series [2] (293.15 K), 1122.4 ± 20 m/s in series [2] (303.15 K), 1087.4 ± 20 m/s in series [2] (313.15 K) and 1051.6 ± 20 m/s in series [2] (323.15 K). Further, the mass density is reported as 791.5 ± 6 kg/m3 in series [2] (293.15 K), 777 ± 6 kg/m3 in series [2] (303.15 K), 768.2 ± 6 kg/m3 in series [2] (313.15 K) and 759 ± 6 kg/m3 in series [2] (323.15 K).
In the case of `CC(C)O` [propan-2-ol] + CC(=O)[O-].[NH3+]CCO, the speed of sound in series [2] (293.15 K) was determined as 1174.3 ± 20 m/s; in series [2] (303.15 K) it was 1122.4 ± 20 m/s; in series [2] (313.15 K) it was 1087.4 ± 20 m/s; in series [2] (323.15 K) it was 1051.6 ± 20 m/s. The mass density worked out at 791.5 ± 6 kg/m3 in series [2] (293.15 K), 777 ± 6 kg/m3 in series [2] (303.15 K), 768.2 ± 6 kg/m3 in series [2] (313.15 K) and 759 ± 6 kg/m3 in series [2] (323.15 K).
In the case of `CCCO` [propan-1-ol] + CC(=O)[O-].OCC[NH2+]CCO, the speed of sound in series [2] (293.15 K) is listed as 1223.4 ± 20 m/s; in series [2] (303.15 K), 1189.4 ± 20 m/s; in series [2] (313.15 K), 1155.5 ± 20 m/s; in series [2] (323.15 K) it was 1122 ± 20 m/s. The mass density in series [2] (293.15 K) is recorded as 803.6 ± 6 kg/m3; in series [2] (303.15 K) it was 795.7 ± 6 kg/m3; in series [2] (313.15 K) it was 787.5 ± 6 kg/m3; in series [2] (323.15 K), 779.2 ± 6 kg/m3.
